Test results from patent publication US12501900B2, “Heterocyclyl pyridazine as fungicidal compounds” (Bayer Aktiengesellschaft, priority 2018, dated 2025).

Tests used:
[1] = Measurement of LogP values by HPLC on reversed phase columns (EEC directive 79/831 Annex V.A8), methods [a], [b], [c]; assay type: physicochemical; details: HPLC on reversed phase column, method [a]; read-out: Log P
How it was run: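 Log P determined by reversed-phase HPLC following EEC directive 79/831 Annex V.A8. Multiple values within one method are listed joined by "+". Lambda-max taken from UV spectra over 200–400 nm at chromatographic peak maxima.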

[2] = system: Colletotrichum lindemuthianum; experiment: Colletotrichum lindemuthianum in vitro cell test; assay type: cell-based; details: 144 h, 20 ppm of active ingredient, liquid culture, 6 days incubation, read-out: efficacy (inhibition of fungal growth)
Alternaria brassicae = experiment: In vivo preventive test on Alternaria brassicae (leaf spot on radish or cabbage); details: 144 h, 500 ppm of active ingredient, preventive spray on radish or cabbage, evaluated 6 days after inoculation, read-out: efficacy

| SMILES | chromatographic logP [1] | inhibition at 20 ppm [2] [%] | pest or weed control at 500 ppm (Alternaria brassicae) [%] |
| --- | --- | --- | --- |
| COc1cccc(Oc2nnc(Cl)cc2C2=NOCC(Cc3ccc(C)cc3C)N2)c1F (racemic) [I-005, rac-3-[6-chloro-3-(2-fluoro-3-methoxy-phenoxy)pyridazin-4-yl]-5-[(2,4-dimethylphenyl)methyl]-5,6-dihydro-4H-1,2,4-oxadiazine] | 3.91 | 90 to 100 | 90 to 100 |
| C=C(OCC)c1cc(C2=NOCC(Cc3ccc(C)cc3C)N2)c(Oc2cccc(C(F)(F)F)c2)nn1 (racemic) [I-009, rac-5-[(2,4-dimethylphenyl)methyl]-3-[6-(1-ethoxyvinyl)-3-[3-(trifluoro-methyl)phenoxy]pyridazin-4-yl]-5,6-dihydro-4H-1,2,4-oxadiazine] | 4.98 | 90 to 100 | 90 to 100 |
| FC(F)(F)c1cccc(Oc2nnc(Cl)cc2C2=NOCC(Cc3ccc(Br)cc3Cl)N2)c1 (racemic) [I-016, rac-5-[(4-bromo-2-chloro-phenyl)methyl]-3-[6-chloro-3-[3-(trifluoromethyl)phenoxy]pyridazin-4-yl]-5,6-dihydro-4H-1,2,4-oxadiazine] | 4.61 | 90 to 100 | 90 to 100 |
| COCCOc1c(Cl)nnc(Oc2cccc(C(F)(F)F)c2)c1C1=NOCC(Cc2ccc(C)cc2C)N1 (racemic) [I-072, rac-3-[6-chloro-5-(2-methoxyethoxy)-3-[3-(trifluoro-methyl)phenoxy]pyridazin-4-yl]-5-[(2,4-dimethylphenyl)methyl]-5,6-dihydro-4H-1,2,4-oxadiazine] | 4.18 | 90 to 100 | 90 to 100 |
